In one assay the test system is Mouse macrophages. Kind of assay: Proinflammatory cytokine transcripts after Pg-LPS challenge. Format: cell-based. The procedure: (§1) L-Norleucine as well as other metabolites modulate proinflammatory cytokines in macrophages and HGF. L-Norleucine was obtained commercially (Sigma) and dissolved in DMEM. Mouse macrophages and human HGF were cultured with DMEM supplemented with different concentrations of L-Norleucine and subsequently challenged with Pg-LPS at 100 ng/ml.

Assay [1] concerns human gingival fibroblasts (HGF). Kind of assay: Proinflammatory cytokines after Pg-LPS challenge (qRT-PCR, ELISA, antibody array). Type of assay: cell-based. Particulars: for proinflammatory cytokines (transcripts of IL-1β, 6 and 8): at 0.1 μg after Pg-LPS challenge. The protocol: (§2) Sg metabolites modulate proinflammatory cytokines in human periodontal associated cells in vitro. Sg were cultured in a total of 40 ml DMEM for 24 hrs. After 200 μl of Sg suspension reached 0.2 at OD600 value in a 96-well plate, the Sg metabolites were collected by centrifugation at 3000 g for 10 min and then filtered through a 0.22 μm filter. No toxicity of Sg metabolites was detected using an MTT assay on primary human bone marrow mesenchymal stromal cells (BMSCs) and primary human gingival fibroblasts (HGF) (data no shown). The modulation of Sg metabolites on inflammatory cytokines was tested using human monocyte-derived macrophages (MDM) and HGF. The MDM were generated by inducing a human macrophage cell line (THP-1) using PMA at 10 ng/ml. The MDM at 2×10^6 cells/per well and HGF at 2×10^4 cells/per well were cultured in 24-well plates using DMEM with 10% FBS and 1% PS. The Sg metabolites at 1 and 5% v/v were added and incubated for 24 hrs before challenging with Pg-LPS at 100 ng/ml.
as §1
(§3) Human monocyte-derived macrophages (MDM) using THP-1 cells and HGF were cultured in a 24-well plate with DMEM and challenged with Pg-LPS at 100 ng/ml.
(§4) In addition, freshly isolated epidydimal white adipose tissues (eWAT) from mice on a HFD for 16 weeks were minced and cultured in 24-well plates and treated with HCA at 0.5 and 1.0 μM in DMEM/F-12 containing 10% cosmic calf serum (CCS) and 1% penicillin-streptomycin (basal growth media, BGM). […] These preliminary data are strong evidence that Sg metabolites have the potential to modulate host inflammatory responses and attenuate inflammation.
HCA promotes proliferation of health related bacteria and inhibits proliferation and attachment of periodontopathogenic bacteria. Promoting the growth of health-related commensal bacteria while inhibiting proliferation and attachment of pathogenic bacteria may be effective at preventing or treating periodontal inflammation. To determine if HCA has an effect on the growth properties of commensal bacteria and periodontopathogens, HCA at different concentrations was added to aerobic culture of S. mitis and S. oralis and anaerobic culture of T. denticola as described in our published manuscript (see detail in Shu et al, Journal of Periodontology, 2022). FIGS. 18A-C summarize the functions of HCA on the proliferation of specific commensal and pathogenic bacteria. […] Furthermore, the function of HCA on P. gingivalis attachment, a key parameter of adhesion and biofilm formation by periodontopathogenic bacteria, was investigated. […] Attachment measurements of P. gingivalis were performed based on our published studies (see detail in Shu et al, Journal of Periodontology, 2022). […] To test the biocompatibility and anti-inflammatory properties of HCA, human monocyte-derived macrophages (MDM) and gingival fibroblasts (HGF) were prepared as described in our previous studies. The cells were then treated with HCA from 0.1 to 50 μM. No toxicity was observed after treatment with different concentrations of HCA in either cell type using an MTT assay (FIGS. 19A and B, left column). The anti-inflammatory function of HCA on MDM and HGF after exposure to P. gingivalis lipopolysaccharide (PG-LPS) was investigated. […] HCA mitigates inflammation and affects the composition of microbiomes in vivo. Recent studies investigated whether HCA modulates periodontal inflammation using a mouse model. To induce periodontal inflammation, a total of 1 μl Pg-LPS at 10 μg/μl was directly injected twice a week into the interdental region between maxillary molars of C57BL/6J mice using a Hamilton1700 series syringe according to our previously published studies. […]
A general note: In qPCR the cycle at which signal appears reflects the starting amount.

The subject of another assay is HGF. Kind of assay: Anti-inflammatory miR expression after Pg-LPS challenge. Type of assay: cell-based, human. Particulars: 24 hours after Pg-LPS challenge. The procedure:
(§5) FIGS. 11A-11B. Sg metabolites upregulate anti-inflammatory miRs in human macrophages and HGF. A-B: Relative transcript changes of miR-200c, 146a, and 21 in HGF (A) and human MDM (B) treated with AICAR, MA, HCA, and HPLA 24 hours after Pg-LPS challenge; performed in duplicate.

Assay [2] has as its system human monocyte-derived macrophages (MDM) using THP-1 cells. Kind of assay: Proinflammatory cytokines after Pg-LPS challenge (qRT-PCR, ELISA). Format: cell-based. Particulars: at 0.1 μg after Pg-LPS challenge. The protocol:
as §2, §3, §4
HCA promotes proliferation of health related bacteria and inhibits proliferation and attachment of periodontopathogenic bacteria. Promoting the growth of health-related commensal bacteria while inhibiting proliferation and attachment of pathogenic bacteria may be effective at preventing or treating periodontal inflammation. To determine if HCA has an effect on the growth properties of commensal bacteria and periodontopathogens, HCA at different concentrations was added to aerobic culture of S. mitis and S. oralis and anaerobic culture of T. denticola as described in our published manuscript (see detail in Shu et al, Journal of Periodontology, 2022). FIGS. 18A-C summarize the functions of HCA on the proliferation of specific commensal and pathogenic bacteria. […] Furthermore, the function of HCA on P. gingivalis attachment, a key parameter of adhesion and biofilm formation by periodontopathogenic bacteria, was investigated. […] Attachment measurements of P. gingivalis were performed based on our published studies (see detail in Shu et al, Journal of Periodontology, 2022). […] To test the biocompatibility and anti-inflammatory properties of HCA, human monocyte-derived macrophages (MDM) and gingival fibroblasts (HGF) were prepared as described in our previous studies. The cells were then treated with HCA from 0.1 to 50 μM. No toxicity was observed after treatment with different concentrations of HCA in either cell type using an MTT assay (FIGS. 19A and B, left column). The anti-inflammatory function of HCA on MDM and HGF after exposure to P. gingivalis lipopolysaccharide (PG-LPS) was investigated. […] HCA mitigates inflammation and affects the composition of microbiomes in vivo. Recent studies investigated whether HCA modulates periodontal inflammation using a mouse model. To induce periodontal inflammation, a total of 1 μl Pg-LPS at 10 μg/μl was directly injected twice a week into the interdental region between maxillary molars of C57BL/6J mice using a Hamilton1700 series syringe according to our previously published studies. 100 μl of HCA at 0.5 μM was administrated I.P. three time a week. […] It was also tested whether HCA affects the composition of the microbiome in vivo. For this purpose, high fat diet-induced obese (DIO) mice (The Jackson Laboratory) received I.P, administration of 100 μl of HCA at 0.2 and 0.5 μM three times a week for 3 weeks. […]

For a further assay, the system named is Human MDM. Kind of assay: Anti-inflammatory miR expression after Pg-LPS challenge. Type of assay: cell-based. Particulars: 24 hours after Pg-LPS challenge. The protocol:
as §5
Human MDM was cultured in a 24-well plate and treated with HCA at different concentrations and Pg-LPS at 100 ng/mi for 24 hrs. […] (All data are presented as means±SEM. *: p<0.05 vs untreated, ANOVA).

[3] abbreviates: L-Norleucine at 1 and 5 μM, Pg-LPS at 100 ng/ml.

The source of these data is patent US20230277483A1, “COMPOSITIONS AND METHODS TO TREAT INFLAMMATION” (University of Iowa Research Foundation, priority 2022, published 2023).

For the compound `CCCC[C@H](N)C(=O)O` [L-Norleucine], the “IL-6 and IL-8 in macrophages” value in the assay on Mouse macrophages (L-Norleucine) was “effectively downregulated”. Also, the “transcripts of IL-1β, 6, and 8” value (in the assay with Mouse macrophages (setting [3]); in assay [1] (setting [3])) was “effectively downregulated” throughout.
Turning to `O=C(O)C(O)Cc1ccc(O)cc1` (stereo not drawn) [HPLA, 4-hydroxyphenyllactic acid], the “anti-inflammatory miRs (miR-200c, 146a, and 21)” value (shortened to “anti-inflammatory miRs”) with HGF and with Human MDM was “upregulate” throughout. The “proinflammatory cytokines (IL-6 transcript and IL-6 protein in supernatants)” value in assay [2] is “modulate”. The “proinflammatory cytokines (transcripts of IL-1β, 6 and 8)” value in assay [1] is given as “modulate”.
`O=C(O)CC(O)C(=O)O` (stereo not drawn) [MA, malic acid]: the “anti-inflammatory miRs” value with HGF and in the assay on Human MDM was “upregulate” in each case. In addition, the “proinflammatory cytokines (IL-6 transcript and IL-6 protein in supernatants)” value in assay [2] was “modulate”. In addition, the “proinflammatory cytokines (transcripts of IL-1β, 6 and 8)” value in assay [1] is on record as “modulate”.
On to `NC(=O)c1ncn([C@@H]2O[C@H](CO)[C@@H](O)[C@H]2O)c1N` [AICAR, acadesine], for which the “anti-inflammatory miRs” value in the assay on HGF and in the assay with Human MDM was “upregulate” throughout. In addition, in assay [2], the “proinflammatory cytokines (IL-6 transcript and IL-6 protein in supernatants)” value is recorded as “modulate”. Moreover, in assay [1], the “proinflammatory cytokines (transcripts of IL-1β, 6 and 8)” value was “modulate”.
